# Assay results as given in patent US20230048350A1, “BENZOCOUMARIN AMPK ACTIVATOR COMPOUNDS, COMPOSITIONS, METHODS AND USES THEREOF” (SOCIETE DES PRODUITS NESTLE S.A., priority 2019, published 2023).
# “Also recorded” adds a separate entry of the source.
# Key:
# AMPK β2 WT isoform = test: pACC HTRF assay in AMPKβ1/β2 double knockout U-2 OS cells stably expressing β2 WT; type: cell-based, human; settings: varying concentrations
# Method: (§1) AMPKβ1/β2 double knockout cells were used and re-introduced the expression of human β1 WT or β2 WT isoforms. […] Cells stably expressing β1 WT or β2 were treated with varying concentrations of Compound 1 and subjected to the pACC HTRF (Cisbio) assay to determine the level of phosphorylation of the AMPK substrate, ACC, in cell lysates, as in Example 1.
# This activation profile is characteristic of activators that bind to the ADaM site and consistent with previous studies showing that ADaM-site activators have poorer activation of β2-containing complexes in vitro and in cells.
# AMPK = test: pACC HTRF assay in U-2 OS Flp-In T-REx cells; type: cell-based; settings: 30 mins, varying concentrations, HTRF 665 nm/620 nm ratio
# Method: U-2 OS Flp-In T-REx cells were seeded at 50 K in a 96-well plate and left overnight at 37 C in DMEM GlutaMAX (Thermo Fisher Scientific) supplemented with 10% (vol/vol) FBS and 100 U/ml penicillin G, and 100 μg/ml streptomycin. Cells were treated for 30 mins with varying concentrations of Compound 1 in media lacking FBS and then cells were lysed in 50 μl of Cisbio lysis buffer #1 supplemented with blocking solution as per the manufacturer's protocol (Cisbio). Cells were lysed for 30 mins at room temperature before 16 μl of lysate was incubated with 4 μl of the HTRF antibodies (1:40 dilution of the acceptor and donor (p)ACC antibodies, as per the manufacturers protocol). Lysates were incubated overnight with the antibodies before 665 nm/620 nm ratio was determined using a MolecularDevices i3 plate reader (with a HTRF cartridge add-on).
# Phosphorylation of ACC is widely used as a cellular indicator of AMPK activity.
# [1] = system: AMPK β1 S108A mutant (ADaM-binding site mutant); test: pACC HTRF assay in AMPKβ1/β2 double knockout U-2 OS cells stably expressing β1 S108A mutant; type: cell-based, human; settings: varying concentrations
# Source text: (§2) AMPKβ1/β2 double knockout U-2 OS Flp-In™ T-Rex™ cell lines were generated by Horizon Discovery (Cambridge, UK). Cells were genotyped and analysed by western blotting to confirm that there was a complete knockout of AMPKβ1/β2. We took these AMPKβ1/β2 double knockout cells, and re-introduced the expression of human β1 wild-type (WT) or a […] Serine 108 to alanine mutation (S108A). This was achieved using the Flp-In™ system (Invitrogen) present in this cell line and stable cells expressing β1 WT or a β1 S108A mutant were generated according to the manufacturers' protocols. Re-expression of the β1 subunit was confirmed by Western blot analysis.
# (§3) Cells stably expressing β1 WT or a β1 S108A mutant were treated with varying concentrations of Compound 1 and subjected to the pACC HTRF (Cisbio) assay to determine the level of phosphorylation of the AMPK substrate, ACC, in cell lysates.
# AMPK β1 WT = test: pACC HTRF assay in AMPKβ1/β2 double knockout U-2 OS cells stably expressing β1 WT; type: cell-based, human; settings: varying concentrations
# Source text: as §2, §3, §1
smiles,measurement,setting,value
"COc1cc(O)c2c(c1)c(=O)oc1cc(O)ccc12 [Compound 1, 3,10-Dihydroxy-8-methoxy-6H-benzo[c]chromen-6-one]","phosphorylation of the AMPK substrate, ACC (pACC); AMPK activation",AMPK β2 WT isoform,does not activate AMPK; also recorded: not able to increase pACC
same,"phosphorylation of the AMPK substrate, ACC (pACC)",AMPK,"increases the phosphorylation of the AMPK substrate, ACC, in a dose-dependent manner"
same,"phosphorylation of the AMPK substrate, ACC (pACC); AMPK activation",[1],does not activate AMPK; also recorded: not able to increase pACC
same,"phosphorylation of the AMPK substrate, ACC (pACC); AMPK activation",AMPK β1 WT,activates AMPK; also recorded: able to dose-dependently increase pACC
